Experiment: Stability of Atorvastatin Calcium Amorphous (related substances by HPLC on storage)
Assay type: physicochemical
[1] = 25° ± 2° C./RH 60 ± 5%, 1 Month
[2] = 25° ± 2° C./RH 60 ± 5%, 2 Months
[3] = 25° ± 2° C./RH 60 ± 5%, 3 months
[4] = 25° ± 2° C./RH 60 ± 5%, 6 Months
[5] = 25° ± 2° C./RH 60 ± 5%, 6 Months, listed as stable amorphous atrovastatin calcium
[6] = 25°±2° C./RH 60±5% for 6 months
[7] = Cold (5° C.) 2° to 8° C., 1 Month
[8] = Cold (5° C.) 2° to 8° C., 2 Months
[9] = Cold (5° C.) 2° to 8° C., 3 months
[10] = Cold (5° C.) 2° to 8° C., 6 Months
[11] = Cold (5° C.) 2° to 8° C., 6 Months, listed as stable amorphous atrovastatin calcium

hemi-calcium salt of (3R, 5R) 7-[3-phenyl-4-phenylcarbamoyl-2-(4-fluorophenyl)-5-isopropyl-pyrrol-1-yl]-3,5-dihydroxyheptanoic acid [Atorvastatin Calcium Amorphous]
single individual unknown impurities, area percentage of HPLC (20 to 8° C. under cold (5° C.) condition for 6 months): < 0.1% | Related Substance by HPLC: 3-O-Methyl Atorvastatin Calcium [1]: 0.02% | Related Substance by HPLC: Atorvastatin Desflouro Calcium [1]: 0.05% | Related Substance by HPLC: Atorvastatin Diasteroisomer [1]: 0.08% | Related Substance by HPLC: Atorvastatin Lactone [1]: 0.07% | Related Substance by HPLC: 3-O-Methyl Atorvastatin Calcium [2]: 0.03 | Related Substance by HPLC: Atorvastatin Desflouro Calcium [2]: 0.06% | Related Substance by HPLC: Atorvastatin Diasteroisomer [2]: 0.10% | Related Substance by HPLC: Atorvastatin Lactone [2]: 0.05% | Related Substance by HPLC: 3-O-Methyl Atorvastatin Calcium [3]: 0.03% | Related Substance by HPLC: Atorvastatin Desflouro Calcium [3]: 0.06% | Related Substance by HPLC: Atorvastatin Diasteroisomer [3]: 0.12% | Related Substance by HPLC: Atorvastatin Lactone [3]: 0.04% | Related Substance by HPLC: 3-O-Methyl Atorvastatin Calcium [4]: 0.03% | Related Substance by HPLC: Atorvastatin Desflouro Calcium [4]: 0.06% | Related Substance by HPLC: Atorvastatin Diasteroisomer [4]: 0.11% | Related Substance by HPLC: Atorvastatin Lactone [4]: 0.05% | Related Substance by HPLC: Atorvastatin diol methyl ester [4]: less than 0.1% | Related Substance by HPLC: Atorvastatin protected diol [4]: less than 0.1% | Related Substance by HPLC: t-butyl diol ester [4]: less than 0.1% | Related Substance by HPLC: 3-O-Methyl Atorvastatin Calcium [5]: less than 0.1% | Related Substance by HPLC: Atorvastatin Desflouro Calcium [5]: less than 0.1% | Related Substance by HPLC: Atorvastatin Diasteroisomer [5]: less than 0.1% | Related Substance by HPLC: Atorvastatin Lactone [5]: less than 0.1% | single individual known impurities, area percentage of HPLC [6]: less than 0.15% | single individual unknown impurities, area percentage of HPLC [6]: less than 0.1% | Related Substance by HPLC: 3-O-Methyl Atorvastatin Calcium [7]: 0.03% | Related Substance by HPLC: Atorvastatin Desflouro Calcium [7]: 0.06% | Related Substance by HPLC: Atorvastatin Diasteroisomer [7]: 0.08% | Related Substance by HPLC: Atorvastatin Lactone [7]: 0.08% | Related Substance by HPLC: 3-O-Methyl Atorvastatin Calcium [8]: 0.03% | Related Substance by HPLC: Atorvastatin Desflouro Calcium [8]: 0.07% | Related Substance by HPLC: Atorvastatin Diasteroisomer [8]: 0.09% | Related Substance by HPLC: Atorvastatin Lactone [8]: 0.04% | Related Substance by HPLC: 3-O-Methyl Atorvastatin Calcium [9]: 0.03% | Related Substance by HPLC: Atorvastatin Desflouro Calcium [9]: 0.07% | Related Substance by HPLC: Atorvastatin Diasteroisomer [9]: 0.10% | Related Substance by HPLC: Atorvastatin Lactone [9]: 0.05% | Related Substance by HPLC: 3-O-Methyl Atorvastatin Calcium [10]: 0.03% | Related Substance by HPLC: Atorvastatin Desflouro Calcium [10]: 0.05% | Related Substance by HPLC: Atorvastatin Diasteroisomer [10]: 0.08% | Related Substance by HPLC: Atorvastatin Lactone [10]: 0.06% | Related Substance by HPLC: Atorvastatin diol methyl ester [10]: less than 0.1% | Related Substance by HPLC: Atorvastatin protected diol [10]: less than 0.1% | Related Substance by HPLC: t-butyl diol ester [10]: less than 0.1% | Related Substance by HPLC: 3-O-Methyl Atorvastatin Calcium [11]: less than 0.1% | Related Substance by HPLC: Atorvastatin Desflouro Calcium [11]: less than 0.1% | Related Substance by HPLC: Atorvastatin Diasteroisomer [11]: less than 0.1% | Related Substance by HPLC: Atorvastatin Lactone [11]: less than 0.1% | Related Substance by HPLC: 3-O-Methyl Atorvastatin Calcium (Initial): 0.02% | Related Substance by HPLC: Atorvastatin Desflouro Calcium (Initial): 0.06% | Related Substance by HPLC: Atorvastatin Diasteroisomer (Initial): 0.07% | Related Substance by HPLC: Atorvastatin Lactone (Initial): 0.09% | Related Substance by HPLC: Atorvastatin protected diol (Initial): 0.01% | single individual known impurities, area percentage of HPLC (cold (5° C.) condition for 6 months): less than 0.15%
